# Test results as given in patent publication US6790825B2, “Method of using secretin and compositions made therefrom for the treatment of autism and other neurological, behavioral and immunological disorders” (Repligen Corporation, priority 1997, dated 2004).
# Entries after “also recorded” stand apart in the source; their conditions may differ. No end group written: not given here.
# Tests used:
# [1] = test system: patient, a child with symptoms of autism; assay: Intravenous secretin infusion in a child with symptoms of autism (Example 1): behavioral and biomedical changes; assay type: in vivo, human
# From the text: The present invention will be better understood from the following examples which are given by way of illustration and not by way of limitation. The patient, the same in both examples, is a child with symptoms of autism.
# The patient in the present examples developed normally […], with the exception of gastrointestinal problems (i.e., chronic diarrhea and constipation) which began at about six months. At about thirteen months, when whole milk was introduced into their diet, the patient began having reoccurring ear infections. At about fourteen months, the patient appeared to lose the ability to process language, first receptively (at about 14 months) then expressively (at about 16 months). The patient also experienced episodes of “shivers” that appeared to be intermittent seizures.
# After consulting with numerous neurologists, pediatricians, child development specialists, audiologists, endocrinologists, allergists, and other medical professionals, no consistent diagnosis had been reached. […] The term autism is used herein for reference purposes only, and this invention is intended to apply to any number of pervasive developmental disorders as well as neurological and immunological disorders.
# (§1) When the patient was […], the secretin was administered by way of an infusion as part of an upper gastrointestinal endoscopy. The secretin was used in this diagnostic procedure at the request of the patient's parents, one of which is an inventor of the present invention. The secretin used in this procedure is known as Secretin-Ferring available from Ferring Laboratories, Inc., Suffern, N.Y. (See Appendix A). The secretin was dissolved in a […] solution of sodium chloride and administered in a dosage of 2 clinical units (CU) per kilogram (kg) body weight by intravenous injection over one minute. (I.E. 30 IU IV for approximately 15 kilograms of body weight.)
# (§2) The diagnostic tests performed on the patient during this procedure also indicated gastric inflammation. […] The following Table I summarizes the improvements observed in the patient within 3 weeks after the infusion of secretin.
# Biomedical changes were also measured in the patient.
# At the request of the patient's parents, a second infusion of secretin was performed about 9 months after the first infusion, and a third infusion of secretin was performed about three months after the second infusion.
# pancreas = assay: Pancreatic juice release after secretin infusion during upper gastrointestinal endoscopy (Example 1); assay type: in vivo, human; conditions: immediately after 2 CU/kg i.v. over one minute; usual rate 1-2 ml/min
# Protocol: as §1, §2
# [2] = test system: patient, a child with symptoms of autism; assay: Daily transdermal secretin with DMSO in the same patient (Example 2); assay type: in vivo, human
# Protocol: At the time of this treatment, the patient was […]. Secretin was administered transdermally using pharmaceutical grade dimethyl sulfoxide (DMSO) (generally 99.9% pure) available from Clinic Service Co., Box 2512, Hemet Calif. 92543. The secretin (Secretin-Ferring) was administered daily in a dosage of about 75 CU over a five day period (i.e., about 15 CU daily). For each treatment, about 4 drops of DMSO were placed onto the skin of the patient, about 15 CU of the crystalline secretin was placed onto the DMSO, and the composition was rubbed into the skin.
# abnormal opioid peptides = conditions: autistic children that responded to casein free and gluten free diet; measured before and after infusion; cited from earlier work
substance,measurement,setting,value
"secretin (HSDGTFTSELSRLRDSARLQRLLQGLV-NH2; ends and bridges not checked; UniProt P63298 33-59, looked up) [polypeptide hormone secreted by the mucosa of the duodenum and upper jejunum; used as Secretin-Ferring from Ferring Laboratories]",SPECT scan: perfusion of the right posterior parietal and right temporal lobes (blood flow in the brain),[1]; after the infusion,improved; also recorded: increased blood flow in the brain
same,"Measles, mumps and rubella antibodies",[1]; after the secretin administration in Example 1,"reduction of measles, mumps and rubella antibodies"
same,Rubella titers,"[1]; after the treatment, dropped from 5.8 before",2.3
same,Rate of the patient's progress,"[1]; at about 5 weeks after the first infusion, behavioral improvements continued",appeared to decrease
same,Progress within 3 weeks after the secretin infusion: bowel movements,"[1]; before infusion: Abnormal bowel movements, 2 CU/kg i.v.",Normal bowel movements.
same,Progress within 3 weeks after the secretin infusion: sleeping problems,"[1]; before infusion: Consistent sleeping problems, up numerous times each night, 2 CU/kg i.v.",Has slept through almost every night
same,Progress within 3 weeks after the secretin infusion: toilet training,"[1]; before infusion: Diapers only, 2 CU/kg i.v.",Completely potty trained.
same,Progress within 3 weeks after the secretin infusion: imitation of commands,"[1]; before infusion: Did not imitate commands, 2 CU/kg i.v.",Will imitate almost any multi-step
same,Progress within 3 weeks after the secretin infusion: spinning episodes,"[1]; before infusion: Infrequent (1-2 times/week) spinning episodes, 2 CU/kg i.v.",No spinning episodes.
same,Progress within 3 weeks after the secretin infusion: diet preferences,"[1]; before infusion: Limited Diet Preferences, 2 CU/kg i.v.",No Change
same,Progress within 3 weeks after the secretin infusion: eye contact,"[1]; before infusion: Minimal eye contact, 2 CU/kg i.v.",Eye contact 75% of the time.
same,Progress within 3 weeks after the secretin infusion: connections between language and objects,"[1]; before infusion: No apparent connections made, 2 CU/kg i.v.",Many connections made between
same,Progress within 3 weeks after the secretin infusion: flash cards,"[1]; before infusion: No flash cards, 2 CU/kg i.v.",40-50 flash cards.
same,Progress within 3 weeks after the secretin infusion: interest in drawing,"[1]; before infusion: No interest in drawing, 2 CU/kg i.v.",Wants to draw constantly. Will draw
same,Progress within 3 weeks after the secretin infusion: response to request for gestures,"[1]; before infusion: No response, 2 CU/kg i.v.",Responds to all kinds of things
same,Progress within 3 weeks after the secretin infusion: sentences,"[1]; before infusion: No sentences, 2 CU/kg i.v.","Short sentences - such as; “I love you”,"
same,Progress within 3 weeks after the secretin infusion: words spoken,"[1]; before infusion: Two words, 2 CU/kg i.v.",100's of words - will repeat some
same,Progress within 3 weeks after the secretin infusion: interaction with videos,"[1]; before infusion: Watch Videos, 2 CU/kg i.v.","Now, gets “involved” interactively"
same,Serotonin levels in blood,[1]; blood tests after the treatment,rise in serotonin levels; also recorded: increase in serotonin levels
same,Progress within 3 weeks after the secretin infusion: water consumption,"[1]; no change, before infusion: excessive, approximately 50 cups per day, 2 CU/kg i.v.",change approximately 50 cups per cups per day
same,Results of second and third infusions,"[1]; second about 9 months after the first, third about three months after the second",achieved the same results
same,Chronic abnormal bowel movements,"[1]; within days after administration, no change of diet",became normal
same,Amount of pancreatic juice released,pancreas,approximately 10 ml/min
same,Improvements in the patient on daily transdermal administration,"[2]; about 15 CU daily with about 4 drops DMSO rubbed into the skin, compared with infusion",even more dramatic and significant improvements
same,Effect of stopping the daily dose,[2]; daily transdermal dose stopped,autistic behavioral symptoms return
same,Language progress,"[2]; within about 6 months, about 15 CU daily transdermally with DMSO",progressed to spontaneous and conversational language
same,Abnormal opioid peptides after the secretin infusion,abnormal opioid peptides,disappeared
